Earlier results as cited in patent publication US20060154981A1, “Method of reducing intraocular pressure and treating glaucoma” (Alcon, Inc., priority 2005, published 2006).

Tests used:
neutrophils = conditions: compared with lipoxin A4
IOP = conditions: rabbits

For `CCCCC[C@H](O)[C@H](O)CO` [compound 2], the “Inhibition of LTB4-induced chemotaxis of neutrophils” value (neutrophils) is given as “inhibit LTB4-induced chemotaxis of neutrophils as potently as lipoxin A4”.
In the case of `CCCCC[C@H](O)/C=C/C=C\C=C\C=C\[C@@H](O)[C@@H](O)CCCC(=O)OC` [methyl ester of lipoxin A4], the IOP lowering (IOP) is given as “reported to lower IOP in rabbits”.
